# Measurements from PMC7679387, “VZHE-039, a novel antisickling agent that prevents erythrocyte sickling under both hypoxic and anoxic conditions” (Scientific Reports, 2020).
# “Also recorded” adds a separate entry of the source. Where two headings read alike, the source gives them in different places.
# Key:
# [1] = target: T1, Hb (Homo sapiens, UniProt P69905); set-up: method as in PMID 30289405; conditions: previously observed, cited from earlier work
# T1 construct: whole blood suspensions from subjects with homozygous SCD (Hct of 20%); from tissue; host or cells: whole blood / red blood cells of patients with homozygous SS sickle cell disease; lysate for HPLC and OEC
# [2] = tested on: SS cells; experiment: Antisickling activity under anoxia (100% N2); assay type: cell-based, human; conditions: 2 mM, 100% N2 gas, 30 min
# Excerpt: Therefore, another objective in the targeted design of VZHE-039 was to complement its O2-dependent antisickling activity—common to this class of aromatic aldehydes—with an improved O2-independent antisickling activity through proximity-enhanced auxiliary interactions with the αF-helix. Findings from the VZHE-039 crystallographic studies indicate that we achieved the structural objective of enhanced interactions between the methylhydroxy substituent and the αF-helix. We further asked whether these enhanced interactions would translate to an improvement in the O2-independent antisickling activity—as hypothesized. We therefore explored the potential O2-independent activity of VZHE-039, by testing its antisickling properties under complete deoxygenated/anoxic conditions (i.e., 100% N2). […] For internal control purposes, aliquots from samples used for testing for antisickling studies at 2.5% O2 (see above) were also used for testing the antisickling effect of these compounds under 100% N2 gas, therefore, helping elucidate the antisickling effects due to O2-dependent activity of the compounds. Since this experimental design utilized aliquots of the same samples under different gas conditions, it ensured that the assay was free of any potential errors associated with variability in hematocrit and accuracy in drug concentrations.
# We conducted two studies to test the antisickling property of VZHE-039 under anoxia to establish the secondary mechanism of action. In the first study, we conducted antisickling studies as described above and also previously reported (2.5% O2)[33], using 2 mM concentrations of VZHE-039, and the controls vanillin, TD-7 and Voxelotor. After 1 h, aliquot samples were fixed with 2% glutaraldehyde without exposure to air. Then the incubation chamber was opened and exposed to air for 15 min to ensure complete re-oxygenation and reversal of the sickled cells to normal round cells. Reversal was confirmed by microscopy. The incubation chamber was then closed, and the assay was repeated under 100% nitrogen gas for 30 min, at which point aliquots were obtained and fixed. Aliquot samples were then subjected to microscopic morphological analysis of bright field images as previously described. Resulting sickled cells (percentages) were compared across samples, and between aliquots of the same samples that had been obtained either under 2.5% oxygen or 100% nitrogen.
# [3] = target: T2, HbA (Homo sapiens, UniProt P69905); experiment: In vitro time-dependent Hb oxygen equilibrium study using normal whole blood (tonometry); assay type: cell-based; conditions: 2 mM, Hct 30%, 37 °C
# T2 construct: fresh normal adult whole blood (Hct of 30%); from tissue; host or cells: normal adult whole blood (red blood cells)
# Excerpt: The antisickling activity of aromatic aldehydes is dependent on Schiff-base interaction between the aldehyde moiety and the Hb αVal1 amines (Schiff-base adduct) and the increase in the protein affinity for oxygen[30]–[40]. […] To overcome this pharmacologic limitation, Tucaresol and Voxelotor, two potent antisickling agents utilized a ortho-hydroxyl moiety (relative to the aldehyde group) on the benzaldehyde ring to form intramolecular hydrogen-bond interaction with the aldehyde group to form hemiacetal-like moiety, which led to significant reduction in oxidative metabolism of the aldehyde[28],[50]. […] VZHE-039, however, incorporates this ortho-hydroxyl moiety on the benzene ring, which is expected to increase its oxidative metabolic stability. This was tested by incubating 2 mM of VZHE-039 (with vanillin and TD-7 as controls) with fresh normal adult whole blood (Hct of 30%) at 37 °C as a surrogate measure of oxidative metabolism. At defined time points (1, 4, 8, 12 and 24 h), aliquot samples were drawn, and subsequently analyzed for their P50-shifts relative to the initial P50 value, using three-point tonometry. In parallel, an untreated control sample was also assessed to control for any time-dependent, but drug-independent changes in P50 values. […] These findings confirm the importance of the ortho-hydroxyl group in aromatic aldehydes in preventing or reducing enzymatic metabolism of aldehyde in RBCs.
# Normal whole blood samples (hematocrit 30%) in the absence (control) or presence of 2 mM concentration VZHE-039 (solubilized in DMSO) were incubated at 37 °C for 24 h with shaking (at 140 rpm). At 1, 4, 8, 12 and 24 h time intervals, aliquots of this mixture were removed and then subjected to OEC analysis using tonometry as previously described. Vanillin and TD-7 were used as positive controls, while DMSO was tested as negative control. Briefly, the compound-treated blood samples were incubated in IL 237 tonometers (Instrumentation Laboratories, Inc. Lexington, MA) for approximately 10 min at 37 °C, and allowed to equilibrate at oxygen tensions 6, 20, and 40 mmHg. The samples were then aspirated into an ABL 700 Automated Blood Gas Analyzer (Radiometer) to determine the pH, partial pressure of CO2 (pCO2), partial pressure of oxygen (pO2), and Hb oxygen saturation values (SO2). The measured values of pO2 (mmHg) and SO2 at each pO2 value were then subjected to a non-linear regression analysis using the program Scientist (Micromath, Salt Lake City, UT) to estimate P50 as previously reported.
# [4] = tested on: SS cells; set-up: method as in PMID 30289405; conditions: previously observed, cited from earlier work
# [5] = target: T3, HbS (Homo sapiens, UniProt P69905); set-up: method as in PMID 30289405; conditions: previously observed, cited from earlier work
# T3 construct: whole blood suspensions from subjects with homozygous SCD (Hct of 20%); from tissue; host or cells: whole blood / red blood cells of patients with homozygous SS sickle cell disease; lysate for HPLC and OEC
# [6] = experimental animals and humans; cited from earlier work
# [7] = target: T1, Hb; experiment: Oxygen equilibrium (P50 shift) of lysates from SS cells, Hemox Analyzer; assay type: cell-based; conditions: 20% hematocrit
# Method: (§1) For our previously studied compounds (e.g., INN-312, TD-7, SAJ-310, INN-298) that incorporate methoxyPy substitution to vanillin analogs, we observed a significant increase in functional and biological activity as a result of increased protein interactions[31],[33],[35],[36]. We therefore expected similar effects for VZHE-039, which we tested by following VZHE-039 activity (measured by Hb adduct formation, P50-shift and RBC sickling inhibition) using SS blood. Briefly, we incubated 0.5, 1, and 2 mM concentrations of VZHE-039 with whole blood suspensions from subjects with homozygous SCD (Hct of 20%) under hypoxic conditions (2.5% O2/97.5% N2) at 37 °C for 2 h for expected peak adduct. Aliquot blood samples were drawn into a fixative (2% glutaraldehyde solution), and sickling was assessed by microscopy[31],[33],[35],[36]. Aliquot samples were also subjected to cation-exchange HPLC analyses to assess the degree of Hb modification to the high-affinity adduct form (Hb adduct formation), as well as standard O2 equilibrium curves (OEC) to assess P50-shifts using hemox analyzer[31],[33],[35],[36]. […] The improved potency of Voxelotor has been attributed to reduced binding stoichiometry, i.e. while Voxelotor binds Hb at a 1:1 ratio, VZHE-039 binds Hb at a 2:1 ratio. […] This observation, as will be discussed later is likely due to a meaningful contribution from the novel O2-independent antisickling activity as result of the strong contact with the αF-helix.
# (§2) The effect of VZHE-039 on RBC sickling, Hb modification, and Hb oxygen equilibrium was studied utilizing samples from consented individuals with homozygous SCD following previous procedure. Briefly, blood suspended in Hemox buffer and supplemented with glucose and bovine serum albumin, to a final hematocrit of 20% were incubated under air in the absence or presence of 0.5 mM, 1 mM and 2 mM VZHE-039 at 37 °C for 1 h. This was followed by incubating the suspensions under hypoxic conditions (2.5% O2/97.5% N2) at 37 °C for 2 h. Aliquot samples were obtained and fixed with 2% glutaraldehyde solution without exposure to air, and then subjected to microscopic morphological analysis of bright field images (at × 40 magnification) of single layer cells on an Olympus BX40 microscope fitted with an Infinity 2 camera (Olympus), and the coupled Image Capture software. Leftover samples were washed in phosphate-buffer saline, and hemolyzed in hypotonic lysis buffer for subsequent Hb-modification and oxygen equilibrium analyses.
# For the oxygen equilibrium studies, 100 μL aliquot samples from the above clarified lysate were added to 4 mL of 0.1 M potassium phosphate buffer, pH 7.0, in cuvettes and subjected to hemoximetry analysis using a Hemox Analyzer (TCS Scientific Corp.) to determine the P50 values.
# [8] = tested on: SS RBCs; experiment: pO2-dependent degree of sickling in Hemox Analyzer; assay type: cell-based, human; conditions: 2 mM, Hct 20%
# Method: In a confirmatory study, a pO2 dependent degree of sickling of VZHE-039 at 1 and 2 mM doses, with Voxelotor as a control was performed using a Hemox analyzer. […] Oksenberg et al.reported similar observations with Voxelotor[28], where the compound lost its potent antisickling activity at low pO2 values.
# The second study established pO2 dependent degree of sickling of VZHE-039, with Voxelotor as a control. Concurrently, blood samples, hematocrit 20%, were incubated without any drug (control) or with 1, or 2 mM VZHE-039 at 37 °C for 1 h. A second control sample was incubated with 2 mM Voxelotor. At conclusion, 100 uL aliquots of each suspension were mixed with 2.5 mL Hemox buffer (pH 7.4, supplemented with antifoam), and transferred into the sample chamber of the Hemox Analyzer. Compressed air was then flushed through the sample to ensure complete oxygenation (at 150 mmHg). Nitrogen gas was then introduced into the sample chamber, and 50 uL aliquots were obtained and fixed at defined pO2 values. At conclusion, all fixed samples were subjected to microscopic analysis for their degree of sickling, and results were plotted using Prism Graph Pad software. The experiments were conducted in three replicates on different days, and mean and standard deviation values are reported.
# [9] = cited from earlier work
# [10] = target: T3, HbS; experiment: Hb modification (HbS adduct formation) by cation-exchange HPLC of lysates from SS cells; assay type: cell-based; conditions: for Hb Modification: SS cells, 20% hematocrit, HPLC of hemolysates
# Method: as §1, §2
# Finally, for the Hb adduct formation studies, the above clarified lysates were subjected to cation-exchange HPLC (Hitachi D-7000 Series, Hitachi Instruments, Inc., San Jose, CA), using a weak cation-exchange column (Poly CAT A: 30 mm × 4.6 mm, Poly LC, Inc., Columbia, MD). A commercial standard consisting of approximately equal amounts of composite HbF, HbA, HbS and HbC (Helena Laboratories, Beaumont, TX), was utilized as the reference for isotypes. The areas of new peaks, representing HbS adducts, were obtained, calculated as percentage fractions of total Hb area, and reported as levels of modified Hb.
# [11] = tested on: SS cells; experiment: Antisickling study with SS cells under hypoxia (2.5% O2); assay type: cell-based, human; conditions: Homo sapiens, 20% hematocrit, […] O2, 37 °C, read-out: Sickling Inhibition
# Method: as §1, §2
# T2 sequence (P69905 2-142 limits assumed): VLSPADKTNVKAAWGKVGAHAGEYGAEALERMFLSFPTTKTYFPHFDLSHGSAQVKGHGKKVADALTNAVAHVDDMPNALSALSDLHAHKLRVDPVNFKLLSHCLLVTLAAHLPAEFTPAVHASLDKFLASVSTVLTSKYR
# T2 sequence (P68871 2-147 partner limits assumed): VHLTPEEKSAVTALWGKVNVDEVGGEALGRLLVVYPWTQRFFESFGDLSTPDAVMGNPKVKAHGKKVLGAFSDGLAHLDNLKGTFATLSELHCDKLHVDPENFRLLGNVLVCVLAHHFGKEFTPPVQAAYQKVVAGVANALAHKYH
# T3 sequence (P69905 2-142): as the sequence (P69905 2-142 limits assumed) above
# T3 sequence (P68871 with tags, fused parts or gaps E7V partner): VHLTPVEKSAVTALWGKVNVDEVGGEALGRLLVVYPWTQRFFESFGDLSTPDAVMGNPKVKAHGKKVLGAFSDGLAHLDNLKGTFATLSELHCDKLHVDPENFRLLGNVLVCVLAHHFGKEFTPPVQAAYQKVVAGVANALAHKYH
# T1 sequence (P69905 2-142): as the sequence (P69905 2-142 limits assumed) above
# T1 sequence (P68871 with tags, fused parts or gaps E7V partner): as the sequence (P68871 with tags, fused parts or gaps E7V partner) above
structure (smiles),measurement,setting,value
COc1ccc(OCc2cccc(CO)n2)c(C=O)c1 [TD-7],P50-shift,[1]; 0.5 mM,10%
same,P50-shift,[1]; 1 mM,28%
same,P50-shift,[1]; 2 mM,48%
same,Antisickling effect under anoxia (in words),[2],"showed some antisickling effect under anoxia, it was significantly less potent than VZHE-039"
same,Time of maximum effect (P50-shift),[3],1 h
same,Reduction in activity (P50-shift) at 24 h,[3]; relative to maximum effect,~ 45%
same,RBC sickling inhibition,[4]; 0.5 mM,16%
same,RBC sickling inhibition,[4]; 1 mM,29%
same,RBC sickling inhibition,[4]; 2 mM,85%
same,Hb Modification,[5]; 0.5 mM,26%
same,Hb Modification,[5]; 1 mM,45%
same,Hb Modification,[5]; 2 mM,74%
"O=Cc1c(O)cccc1OCc1ccc(C(=O)O)cc1 [Tucaresol, 4[2-formyl-3-hydroxyphenoxymethyl] benzoic acid]",Half-life,[6],> 12 h
"COc1cc(C=O)ccc1O [Vanillin, vanillin]",Antisickling effect under anoxia (in words),[2],showed no effect under anoxic conditions
same,Time course of P50-shift (in words),[3]; 1-24 h,did not have any effects beyond 4 h
"CC(C)n1nccc1-c1ncccc1COc1cccc(O)c1C=O [Voxelotor, reference compound]",P50 Shift (ΔP50),[7]; 0.5 mM,41%
same,P50 Shift (ΔP50),[7]; 1 mM,80%
same,pO2-dependent sickling inhibition (in words),[8],completely prevent sickling at high pO2; also recorded: lost this capability at low pO2
same,Partitioning into the RBC compartment,[9],90%
same,Antisickling effect under anoxia (in words),[2],lost its inherent antisickling effects remarkably under anoxic conditions
same,Half-life,[6],> 12 h
same,Hb Modification,[10]; 0.5 mM,55%
same,Hb Modification,[10]; 1 mM,100%
same,Hb modification (in words),"[10]; 2 mM, samples of the anoxia study",complete Hb modification to the high-O2-affinity form
same,inhibition at 500 µM,[11]; 0.5 mM,56%
same,inhibition at 1000 µM,[11]; 1 mM,98%
